Measurements published in US20090036380A1, “Composition And Method For Brain Tumor Therapy” (Yeda Research and Development Co., Ltd., priority 2006, published 2009).

Test system: NNR5 cells
Test: Viability of NNR5 cells transfected with Karet constructs with or without TrkA
Format: cell-based, rat
Method: FIG. 5f is a viable cell count histogram depicting that the pro-apoptotic effect of Karet is TrkA dependent. NNR5 cells were electroporated with GFP with or without TrkA construct, or Karet with or without TrkA. Cells were incubated for 12 hours after electroporation and results are presented as percent of control (NNR5 transfected with GFP only, mean±SD, n=4, * p<0.05).
FIGS. 20a-q are immunochemistry (FIGS. 20a-p) and FACS (FIG. 20q) analyses of myristylated constructs of Karet, PTB and the non-PTB domain in PC12 (FIGS. 20a-p) or NNR5 (FIG. 20q) cells. Myristylated constructs of Karet (FIGS. 20e-h), PTB (FIGS. 20i-l) and the non-PTB domain (FIGS. 20m-p) or non-myristylated construct of Karet (FIGS. 20a-d) were transfected to PC12 cells and immunochemistry of the expressed constructs was performed using HA-antibody (FIG. 20a), the PTB-antibody (FIGS. 20e, i and m) or Lamin (a nuclear membrane protein)-antibody (FIGS. 20b, f, j, and n). Merged images of the two-color immunocytochemistry are shown in FIG. 20d (for anti-Ha and anti-lamin antibodies) or FIGS. 20h l, and p (for anti-PTB and anti-lamin antibodies). Note the cytoplasmic expression of non-myristylated Karet (FIG. 20a) as compared to the nuclear membrane expression of lamin (FIG. 20b). […] NNR5 cells were transfected with pcDNA3, Ha Karet and TrkA, Myr-Karet, Myr-PTB or Myr-non PTB constructs and the effect on cell viability was determined using calcein (the dead/Live kit). […]
FIGS. 22a-b are histograms depicting the effect of co-transfection of Karet and TrkA on cell death in Hek (FIG. 22a) or NNR5 (FIG. 22b) cells. […] Viability of the cells was measured 24 hours after transfection by XTT. *p<0.05; FIG. 22b—NNR5 cells were co-transfected with Karet or control vector and TrkA, TrkB and TrkC. Cells were analyzed by FACS 24 hours after transfection using the dead/live kit. ** p<0.001.
Viability of cells was evaluated using the Live/dead viability/cytotoxicity kit (Cat. No. L-3224), Molecular Probes, Inc., Eugene, Oreg., USA, according to manufacturer's instructions.

“Karet: full-length mouse Karet protein (SEQ ID NO:1), PTB domain protein, expressed from pcDNA3 with HA tag” was tested, and the cell viability (NNR5 (TrkA deficient), Karet without TrkA) was “no reduction in cell viability”, the “reduction in cell survival” value (NNR5 co-transfected with Karet and TrkA, 12 hours after electroporation, percent of control) was “about 20%” and the decrease in viability (NNR5 co-transfected with Karet and TrkA, FACS dead/live kit, 24 hours after transfection) was 13%.
